Holding throughout (type): in vivo
The subject of one experiment is Blattella germanica. Kind of experiment: Test Example 1: spray knockdown test on Blattella germanica. Particulars: 0.25 h; 2.0% w/v in isopropyl alcohol/kerosine=1/9, 1.5 mL sprayed, ten Blattella germanica, within 15 minutes; read-out: knockdown ratio of test vermin within 15 minutes. On the procedure:
A formulation containing each of the compounds (1), (3), (4), (5), (8), (11), (12) and (21) prepared in accordance with Formulation Example 7 was diluted with an isopropyl alcohol/kerosine=1/9 mixed liquid so that the concentration of each compound became 2.0% w/v, to obtain a diluted solution. Ten vermin Blattella germanica (male female each five vermin) were allowed to release in a container for a test in which a butter was applied on an inner wall (diameter 8.75 cm, height 7.5 cm, bottom face covered with 16 mesh wire net), and the container was arranged on a bottom of a chamber for a test (bottom surface: 46 cm×46 cm, height: 70 cm). From a height of 60 cm from an upper surface of the container, 1.5 mL of the diluted solution was sprayed using a spray gun (spraying pressure 0.42 kg/cm^2). Thirty seconds after spraying, the container was taken out from the chamber for a test, the number of vermin which had been knocked down was counted for 15 minutes with time, and a knockdown ratio was obtained. The knockdown ratio was calculated by the following expression. Knockdown ratio (%)=(number of knocked down vermin/number of test vermin)×100 As a result, the knockdown ratio of test vermin within 15 minutes was 80% or more, in treatment with the compounds (1), (3), (4), (5), (8), (11), (12) and (21), respectively.

A further experiment concerns Aphis gossypii. Kind of experiment: Test Example 5: foliar spray test on Aphis gossypii on cucumber. Particulars: 500 ppm diluted solution, 20 mL/cup sprayed to cucumber, six days after spraying. The procedure: A formulation containing the compound (4) prepared in accordance with Formulation Example 15 was diluted with water so that the concentration became 500 ppm to obtain a diluted solution. On the other hand, a cucumber was planted in a polyethylene cup, and grown until a first true leaf developed. About 20 vermin of Aphis gossypii was parasitized therein. After one day, the diluted solution was sprayed to the cucumber at a ratio of 20 mL/cup. Six days after spraying, the number of live or dead vermin of Aphis gossypii was investigated, and a controlling value was obtained by the following expression. Controlling value (%)={1−(Cb×Tai)/(Cai×Tb)}×100 In addition, letters in the expression indicate the following meanings.

The next experiment deals with Plutella xylostella. Kind of experiment: Test Example 6: cabbage foliar spray test on second instar larvae of Plutella xylostella. As to conditions: 500 ppm diluted solution, 20 mL/cup sprayed to cabbage, 25° C., after 5 days. On the procedure:
A formulation containing the compound (21) prepared in accordance with Formulation Example 15 was diluted with water so that the concentration became 500 ppm, to prepare a diluted solution. On the other hand, the diluted solution was sprayed to a cabbage at a stage of three leaves planted in a polyethylene cup at a ratio of 20 mL/cup. After spraying, the plant was air-dried, foliage portions were cut and accommodated into a 50 mL cup, 5 second instar larvae of Plutella xylostella were released, and the cup was covered. This was stored at 25° C., and after 5 days, the number of dead vermin was counted, and a dead vermin ratio was obtained by the following expression.

From patent publication US10251396B2, “Amide compound and use of same for noxious arthropod control” (SUMITOMO CHEMICAL COMPANY, LIMITED, priority 2014, dated 2019) come the findings set out here.

With `CC(C)CNC(=O)c1cc(COCc2ccccc2)on1` [compound (1)], the pest or weed control at 2 % strength in the experiment with Blattella germanica was not below 80%.

For `C=C(C)CNC(=O)c1cc(COCc2ccccc2)on1` [compound (3)], in the experiment on Blattella germanica, the pest or weed control at 2 % strength was not below 80%.

For the compound `COC(C)CNC(=O)c1cc(COCc2ccccc2)on1` (stereo not shown) [compound (4)], in the experiment on Blattella germanica, the pest or weed control at 2 % strength is not below 80%. In the experiment on Aphis gossypii, the controlling value is reported as not below 90%.

`COCCNC(=O)c1cc(COCc2ccccc2)on1` [compound (5)]: in the experiment with Blattella germanica, the pest or weed control at 2 % strength was not below 80%.

`COC(C)(C)CNC(=O)c1cc(COCc2ccccc2)on1` [compound (8)]: the pest or weed control at 2 % strength in the experiment with Blattella germanica is not below 80%.

With `COC(CNC(=O)c1cc(COCc2ccccc2)on1)OC` [compound (11)], the pest or weed control at 2 % strength with Blattella germanica was not below 80%.

As for `COCC(COC)NC(=O)c1cc(COCc2ccccc2)on1` [compound (12)], the pest or weed control at 2 % strength in the experiment with Blattella germanica was not below 80%.

Take `COC(C)CNC(=O)c1cc(COCc2ccc3ccccc3c2)on1` (stereo not shown) [compound (21)]: the dead vermin ratio in the experiment with Plutella xylostella is given as not below 80%. In addition, in the experiment with Blattella germanica, the pest or weed control at 2 % strength was not below 80%.
